What was measured:
p75^FL = assay: Production of endogenous p75^CTF or p75^ICD fragments in p75^FL-transfected HEK293 cells; type: cell-based; details: vs untreated cells, data not shown
PC12 cells [1] = assay: PC12 cell neurite outgrowth in response to NGF; type: cell-based
Protocol: To assess the effect of p75^NTR constructs (FIG. 2) or c29 peptide on TrkA-mediated neuritogenesis, transfected PC12 cells were grown in the presence of 100 ng/ml NGF for 3 days, with fresh medium and NGF treatments added on day 2. Cells were then imaged live on an Olympus (IX81) microscope fitted with a CO2 atmospheric chamber, using analySIS software. Four random images of 80-100 cells were taken for each treatment condition and images were determined by measuring polygon neurite length of all cells in each image. Data analysis was performed using Graphpad PRISM.
Once PC12 cells are fully differentiated, they become dependent on NGF for survival (Greene, 1978), but can survive if grown in the presence of lower concentrations of NGF (Greene and Tischler, 1976). To determine if c29 could potentiate TrkA-mediated signals, PC12 cells were cultured in the presence of NGF concentrations ranging from 1-100 ng/ml for 5 days, following serum starvation and pre-incubation with c29, scrambled control peptide or no peptide (FIG. 5A). […] Peptides (1 μM) were added to the cultures every 48 hours at the time of NGF addition and medium exchange.

PC12 cells [2] = assay: PC12 cell viability / NGF withdrawal (acid phosphatase assay); type: cell-based
Protocol: To investigate the role of c29 peptide in NGF-withdrawal assays, NGF-containing medium in PC12 cultures was exchanged for NGF-free medium on day 3, and cells were treated with c29 or scrambled peptide and reduced NGF concentrations (1 ng or 10 ng/ml). Treated cells were cultured for 2 days and cell viability was determined via quantification of cytosolic acid phosphatase enzyme activity as described in (Yang et al., 1996).
Briefly, cells were grown in 96-well plates at densities of 5000 cells per well. The culture medium in treated cell assays was removed from and each well was washed once with 200 μl phosphate buffered saline (PBS, pH 7.2). To each well, 100 μl of sodium acetate and p-nitrophenyl phosphate buffer containing 0.1 M sodium acetate (pH 5.0), 0.1% Triton X-100, and 5 mM p-nitrophenyl phosphate was added. The plates were placed in a 37° C. incubator for 30 minutes. The reaction was stopped with the addition of […] of 1 N NaOH, and colour development absorbance was assayed at 405 nm using a microplate reader (POLARstar OPTIMA, USA). […] This background value was typically 0.03-0.1 absorbance units.

HEK293 cells = assay: NGF-FITC binding by flow cytometry, non-transfected HEK293 cells
Protocol: Background fluorescence of HEK293 cells was non-transfected cells (±c29 or scrambled peptide treatment) treated with 26 nM NGF-FITC. For PC12 cells, the control population was cells that had not been treated with NGF-FITC. Analysis of real-time NGF-FITC receptor binding experiments was performed on 550,000-600,000 cells at 4° C. in serum free NB medium and binding kinetics were calculated from raw data files compressed to 50,000 binding events using FlowJo and MatLab Software. Data was plotted with the use of GraphPad Prism.
Only NGF-FITC preparations that promoted equivalent neurite outgrowth of PC12 cells to that of unlabelled NGF were used in binding experiments. To investigate NGF binding, PC12 or transfected HEK293 cells were serum starved for 4 hours, harvested, washed with Dulbecco's Modified Eagle Medium (DMEM), and counted. When used, c29 or scrambled peptide were added to cultures for the third hour of the serum starvation procedure. […] For binding competition assays, following 1 hour in NGF-FITC, cells were washed with ice-cold PBS containing 0.1% normal bovine serum and incubated on ice with unlabeled NGF at concentrations ranging from 100 pM to 10 μM for 30 minutes, then washed twice in PBS before being analysed on a BD Flow Cytometer FACS Scan (Becton-Dickinson).

TrkA and p75^NTR = assay: Surface biotinylation of receptors in PC12 cells; type: cell-based; details: 1 μM peptide, with or without NGF
Protocol: FIG. 10: The juxtamembrane domain of p75^NTR increases the association of NGF to cells expressing TrkA. (A and B) Dose response graphs of the proportion (%) of PC12 cells with fluorescence intensity above background following treatment with 26 […] NGFFITC, a FITC-conjugated antibody to the extracellular domain of p75^NTR (A), or an antibody to TrkA (detected using an anti-rabbit Alexa 594 secondary) (B), after pretreatment with increasing concentrations of […] peptide. (n=3 experiments per data point; mean±SEM *p<0.05, **p<0.01) (C) Representative western blots (WB) of TrkA and p75^NTR present in streptavidin precipitates (surface biotin), or lysate flow through of PC12 cells that had been treated for 1 hour with NGF and/or c29 and scrambled (SC) peptide, prior to the surface proteins being labelled with biotin for 90 minutes on ice.

Sequence: KRWNSCKQNKQGANSRPVNQTPPPEGEKL (c29- Fragment of p75ICD) [29 amino acid peptide of the p75NTR juxtamembrane Chopper domain; delivered to cells linked to PTD4 or disulfide-linked carrier]
- rate of production of endogenous p75^CTF or p75^ICD fragments (p75^FL): did not differ significantly
- neurite outgrowth (length) (PC12 cells [1]; 1 ng/ml NGF, day 5, peptide 1 μM): 20 μm
- neurite length vs scrambled peptide or NGF alone (PC12 cells [1]; 1 ng/ml and 10 ng/ml NGF, day 5, peptide 1 μM): significantly longer neurites
- median neurite length (PC12 cells [1]; 10 ng/ml NGF, day 5, peptide 1 μM): 60 μm
- median neurite outgrowth (PC12 cells [1]; 100 ng/ml NGF, day 5, peptide 1 μM, vs untreated cultures): no difference
- neurite growth (PC12 cells [1]; fragments incubated with PC12 cells and NGF, FIG. 16): stimulated neurite growth
- survival rate of cells (PC12 cells [2]; 1 ng/ml NGF after differentiation in 100 ng/ml NGF): significantly increased the survival rate
- cell survival (PC12 cells [2]; absence of NGF): did not affect on cell survival
- basal PC12 cell growth and proliferation (PC12 cells [2]; medium lacking NGF): no effect on basal PC12 cell growth and proliferation
- fluorescence of nontransfected cells incubated with peptide and NGF-FITC (HEK293 cells): only background levels of fluorescence
- surface or total receptor levels of TrkA and p75^NTR (TrkA and p75^NTR): no significant difference

Source: patent publication US20150344535A1, “NEUROTROPHIN-TYROSINE KINASE RECEPTOR SIGNALING” (THE UNIVERSITY OF QUEENSLAND, priority 2012, published 2015)
